From patent US9839618B2, “Compositions and methods relating to proliferative diseases” (The Penn State Research Foundation, priority 2010, dated 2017)

Legend:
[1] = tested on: normal cells (melanocytes FOM103, fibroblasts FF2441, keratinocytes HFK); assay: MTS assay, leelamine on normal cells; type: cell-based; settings: Homo sapiens, 72 hour exposure, read-out: concentration to kill 50% of normal cells
Protocol: The efficacy of leelamine to kill other cancer types is measured and the IC50 for cell lines derived from carcinomas of breast, lung, prostate, connective tissue, pancreas and colon determined. The MTS assay as described in Sharma, A. et al., Clin Cancer Res, 2009, 15:1674-85; and Madhunapantula, S. V. et al., Mol Cancer Ther, 2008, 7:1297-308 is used to establish the IC50 at 24, 48 and 72 hours of leelamine treatment for normal human epidermal melanocytes (FOM103), normal skin fibroblast cells (FF2441), normal skin keratinocytes (HFK) and compared to melanocytic lesion cells from the radial-, vertical- and metastatic melanoma stages. […] IC50 values for each compound in μmol/L for respective cell lines are measured from three independent experiments using GraphPad Prism version 4.01 (GraphPad Software, La Jolla, Calif.). […]
5×10^3 cells per well in 100 μL of media are plated and grown in a 96-well plate for 48 to 72 hours and treated with either DMSO vehicle control or 0.62 to 40 μmol/L of leelamine for 24, 48 or 72 hours. IC50 values for each compound in μmol/L for respective cell lines are measured from three independent experiments using GraphPad Prism version 4.01 (GraphPad Software, La Jolla, Calif.).

[2] = tested on: UACC 903 and 1205 Lu cells; assay: BrdU incorporation proliferation assay; type: cell-based, human; settings: 0.62 to 10 μmol/L, 24 hours
Protocol: The mechanistic basis of leelamine's activity to inhibit melanoma cell growth is determined by examining the effect of leelamine on 1) cell viability using the MTS assay; 2) proliferation using a BrdU incorporation assay; 3) apoptosis using an assay for caspase-3/7 activity; and 4) cell cycle analysis. The MTS assay as described in Sharma, A. et al., Clin Cancer Res, 2009, 15:1674-85; and Madhunapantula, S. V. et al., Mol Cancer Ther, 2008, 7:1297-308 is used to assay cell viability. Rates of proliferation and apoptosis are measured by seeding 5×10^3 cells in 96-well plates, followed by treatment with 0.62 to 10 μmol/L of leelamine for 24 hours. Proliferating and apoptotic cells are quantified using a colorimetric cell proliferation ELISA BrdU kit (Roche diagnostics, Indianapolis, Ind.) or Apo-ONE Homogenous caspase-3/7 assay kit (Promega, Madison, Wis.), respectively, as described in Sharma, A. et al., Clin Cancer Res, 2009, 15:1674-85; and Madhunapantula, S. V. et al., Mol Cancer Ther, 2008, 7:1297-308.

[3] = tested on: 1205 Lu human melanoma cell tumors; assay: Melanoma xenograft tumor development, 1205 Lu; type: in vivo, mice; settings: intraperitoneally 2.5-7.5 mg/kg daily for 3-4 weeks, compared to DMSO vehicle
Protocol: (§1) The efficacy of leelamine for inhibiting melanoma tumor development is evaluated on preexisting tumors formed following subcutaneous injection of cancer cells into nude mice. Tumor kinetics are measured by subcutaneous injection of 1.0×10^6 UACC 903 or 1205 Lu cells in 0.2 mL of DMEM supplemented with 10% FBS subcutaneously injected above both left and right rib cages of 3- to 4-wk-old female athymic nude-Foxn1^nu mice (Harlan Laboratories, Indianapolis, Ind.). Six days later, when a fully vascularized tumor (50-75 mm^3) has formed, mice are randomly divided into DMSO vehicle control and experimental groups (5 mice/group; 2 tumors/mouse) and treated intraperitoneally with 2.5-7.5 mg/kg body weight leelamine daily for 3-4 weeks. Body weight (grams) and dimensions of the developing tumors (mm^3) are measured at the time of drug treatment as described in Sharma, A. et al., Clin Cancer Res, 2009, 15:1674-85; and Madhunapantula, S. V. et al., Mol Cancer Ther, 2008, 7:1297-308.
Tumor kinetics are measured by subcutaneous injection of 1.0×10^6 UACC 903 or 1205 Lu cells in 0.2 mL of DMEM supplemented with 10% FBS subcutaneously injected above both left and right rib cages of 3- to 4-wk-old female athymic nude-Foxn1^nu mice (Harlan Laboratories, Indianapolis, Ind.). […] Body weight (grams) and dimensions of the developing tumors (mm^3) are measured at the time of drug treatment.

[4] = tested on: UACC 903 and 1205 Lu melanoma cells; assay: Cell cycle analysis (propidium iodide, FACScan); type: cell-based, human; settings: 2 or 3 μmol/L, 24 h
Protocol: Analysis of the effects of leelamine on cell cycle is performed by growing UACC 903 and 1205 Lu melanoma cells in 100-mm culture dishes followed by treatment with 2 or 3 μmol/L of leelamine for 24 h. Total floating and adherent cells are collected following trypsinization and stained using 1 mL propidium iodide solution containing 100 μg/mL propidium iodide; (Sigma, St Louis, Mo.), 20 μg/mL Ribonuclease A (Roche diagnostics, Indianapolis, Ind.) and 3 μg/mL Triton X-100 dissolved in 0.1% (W/V) sodium citrate for 30 m at 4° C. Stained cells are analyzed using the FACScan analyzer (Becton Dickinson, Franklin lakes, NJ) and data processed utilizing ModFit LT software (Verity Software House, Topsham, Me.) as described in Sharma, A. et al., Clin Cancer Res, 2009, 15:1674-85; and Madhunapantula, S. V. et al., Mol Cancer Ther, 2008, 7:1297-308.

[5] = tested on: UACC 903 human melanoma cell tumors; assay: Melanoma xenograft tumor development, UACC 903; type: in vivo, mice
Protocol: as §1
In this example, leelamine (40, 60, or 80 mg/kg body weight) is administered orally to 4-6 weeks old nude mice bearing UACC903 melanoma cell tumors (50-100 mm^3). Sizes of developing tumors are measured. […] Values±S.E.M. (n=5)
Tumor kinetics are measured by subcutaneous injection of 1.0×10^6 UACC 903 or 1205 Lu cells in 0.2 mL of DMEM supplemented with 10% FBS subcutaneously injected above both left and right rib cages of 3- to 4-wk-old female athymic nude-Foxn1^nu mice (Harlan Laboratories, Indianapolis, Ind.). Six days later, when a fully vascularized tumor (50-75 mm^3) has formed, mice are randomly divided into control and experimental groups (5 mice/group; 2 tumors/mouse) and treated with 30-mg/kg body weight of empty liposome vehicle, abietic acid liposomes or Nanolipolee-007 intravenously each day for 3-4 weeks. Body weight (grams) and dimensions of the developing tumors (mm^3) are measured at the time of drug treatment.

CC(C)c1ccc2c(c1)CCC1[C@](C)(CN)CCC[C@]21C (stereo partly drawn) [Leelamine, [(1R,4aS)-1,4a-dimethyl-7-(propan-2-yl)-1,2,3,4,4a,9,10,10a-octahydrophenanthren-1-yl]methanamine]
IC50 [1]: 5 to 8 µM
proliferation (BrdU incorporation) [2]: decrease proliferation
reduction of tumor volume, 1205 Lu [3]: 57%
cell cycle distribution [4]: increased percentage of sub-G0-G1 and G0/G1 cell populations, with a corresponding decrease in S-phase population
body weights of tumor bearing mice ([5]; UACC 903 and 1205 Lu xenograft nude mice, i.p. 2.5-7.5 mg/kg daily): no significant differences
reduction of tumor volume, UACC 903 ([5]; intraperitoneally 2.5-7.5 mg/kg daily for 3-4 weeks, compared to DMSO vehicle): 61%
reduction of tumor growth development, oral ([5]; orally 40, 60 or 80 mg/kg, compared to DMSO control): ~45%
